Measurements as given in the NIST ThermoML archive (doi:10.1016/j.tca.2014.07.022).
Numbers after ± are expanded uncertainties.

Test: xn = mol fraction of the nth substance listed
Conditions: 100 kPa, Liquid; for viscosity: Concentric cylinders viscometry; for mass density: Vibrating tube method

CCCC(C)O (centres undefined) [pentan-2-ol] + CC(=O)CC(C)C
Conditions | mass density [kg/m3] | viscosity [mPa·s]
293.15 K, x2 = 0 | 809.3 ± 0.3 | 3.974 ± 0.083
293.15 K, x2 = 0.0812 | 807.6 ± 0.3 | 2.699 ± 0.057
293.15 K, x2 = 0.1588 | 806.2 ± 0.3 | 2.09 ± 0.044
293.15 K, x2 = 0.2391 | 804.9 ± 0.3 | 1.709 ± 0.036
293.15 K, x2 = 0.3508 | 803.3 ± 0.3 | 1.366 ± 0.029
293.15 K, x2 = 0.4441 | 802.4 ± 0.3 | 1.14 ± 0.024
293.15 K, x2 = 0.561 | 801.4 ± 0.3 | 0.924 ± 0.02
293.15 K, x2 = 0.6484 | 800.9 ± 0.3 | 0.818 ± 0.018
293.15 K, x2 = 0.741 | 800.7 ± 0.3 | 0.74 ± 0.016
293.15 K, x2 = 0.8528 | 800.5 ± 0.3 | 0.671 ± 0.015
293.15 K, x2 = 0.9406 | 800.7 ± 0.3 | 0.63 ± 0.014
298.15 K, x2 = 0 | 805.3 ± 0.3 | 3.277 ± 0.069
298.15 K, x2 = 0.0812 | 803.5 ± 0.3 | 2.326 ± 0.049
298.15 K, x2 = 0.1588 | 801.9 ± 0.3 | 1.83 ± 0.039
298.15 K, x2 = 0.2391 | 800.6 ± 0.3 | 1.496 ± 0.032
298.15 K, x2 = 0.3508 | 799 ± 0.3 | 1.202 ± 0.026
298.15 K, x2 = 0.4441 | 797.9 ± 0.3 | 1.018 ± 0.022
298.15 K, x2 = 0.561 | 796.9 ± 0.3 | 0.85 ± 0.019
298.15 K, x2 = 0.6484 | 796.4 ± 0.3 | 0.767 ± 0.017
298.15 K, x2 = 0.741 | 796 ± 0.3 | 0.69 ± 0.015
298.15 K, x2 = 0.8528 | 795.9 ± 0.3 | 0.63 ± 0.014
298.15 K, x2 = 0.9406 | 795.9 ± 0.3 | 0.59 ± 0.013
303.15 K, x2 = 0 | 801.2 ± 0.3 | 2.717 ± 0.057
303.15 K, x2 = 0.0812 | 799.3 ± 0.3 | 2.029 ± 0.043
303.15 K, x2 = 0.1588 | 797.7 ± 0.3 | 1.619 ± 0.034
303.15 K, x2 = 0.2391 | 796.3 ± 0.3 | 1.333 ± 0.028
303.15 K, x2 = 0.3508 | 794.6 ± 0.3 | 1.078 ± 0.023
303.15 K, x2 = 0.4441 | 793.5 ± 0.3 | 0.928 ± 0.02
303.15 K, x2 = 0.561 | 792.4 ± 0.3 | 0.787 ± 0.017
303.15 K, x2 = 0.6484 | 791.9 ± 0.3 | 0.711 ± 0.016
303.15 K, x2 = 0.741 | 791.5 ± 0.3 | 0.641 ± 0.014
303.15 K, x2 = 0.8528 | 791.3 ± 0.3 | 0.589 ± 0.013
303.15 K, x2 = 0.9406 | 791.4 ± 0.3 | 0.553 ± 0.013
308.15 K, x2 = 0 | 797 ± 0.3 | 2.282 ± 0.048
308.15 K, x2 = 0.0812 | 795 ± 0.3 | 1.757 ± 0.037
308.15 K, x2 = 0.1588 | 793.4 ± 0.3 | 1.429 ± 0.03
308.15 K, x2 = 0.2391 | 791.9 ± 0.3 | 1.185 ± 0.025
308.15 K, x2 = 0.3508 | 790.1 ± 0.3 | 0.966 ± 0.021
308.15 K, x2 = 0.4441 | 788.9 ± 0.3 | 0.842 ± 0.018
308.15 K, x2 = 0.561 | 787.8 ± 0.3 | 0.728 ± 0.016
308.15 K, x2 = 0.6484 | 787.2 ± 0.3 | 0.663 ± 0.015
308.15 K, x2 = 0.741 | 786.8 ± 0.3 | 0.6 ± 0.013
308.15 K, x2 = 0.8528 | 786.6 ± 0.3 | 0.554 ± 0.013
308.15 K, x2 = 0.9406 | 786.7 ± 0.3 | 0.526 ± 0.012
313.15 K, x2 = 0 | 792.7 ± 0.3 | 1.931 ± 0.041
313.15 K, x2 = 0.0812 | 790.6 ± 0.3 | 1.52 ± 0.032
313.15 K, x2 = 0.1588 | 788.9 ± 0.3 | 1.249 ± 0.027
313.15 K, x2 = 0.2391 | 787.4 ± 0.3 | 1.051 ± 0.023
313.15 K, x2 = 0.3508 | 785.6 ± 0.3 | 0.876 ± 0.019
313.15 K, x2 = 0.4441 | 784.3 ± 0.3 | 0.773 ± 0.017
313.15 K, x2 = 0.561 | 783.2 ± 0.3 | 0.675 ± 0.015
313.15 K, x2 = 0.6484 | 782.6 ± 0.3 | 0.617 ± 0.014
313.15 K, x2 = 0.741 | 782.2 ± 0.3 | 0.561 ± 0.013
313.15 K, x2 = 0.8528 | 782 ± 0.3 | 0.522 ± 0.012
313.15 K, x2 = 0.9406 | 782.1 ± 0.3 | 0.497 ± 0.011
318.15 K, x2 = 0 | 788.4 ± 0.3 | 1.647 ± 0.035
318.15 K, x2 = 0.0812 | 786.3 ± 0.3 | 1.329 ± 0.028
318.15 K, x2 = 0.1588 | 784.5 ± 0.3 | 1.116 ± 0.024
318.15 K, x2 = 0.2391 | 782.9 ± 0.3 | 0.949 ± 0.021
318.15 K, x2 = 0.3508 | 781 ± 0.3 | 0.8 ± 0.017
318.15 K, x2 = 0.4441 | 779.8 ± 0.3 | 0.712 ± 0.016
318.15 K, x2 = 0.561 | 778.6 ± 0.3 | 0.627 ± 0.014
318.15 K, x2 = 0.6484 | 778 ± 0.3 | 0.577 ± 0.013
318.15 K, x2 = 0.741 | 777.6 ± 0.3 | 0.53 ± 0.012
318.15 K, x2 = 0.8528 | 777.3 ± 0.3 | 0.492 ± 0.011
318.15 K, x2 = 0.9406 | 777.4 ± 0.3 | 0.465 ± 0.011
323.15 K, x2 = 0 | 784 ± 0.3 | 1.419 ± 0.03
323.15 K, x2 = 0.0812 | 781.9 ± 0.3 | 1.168 ± 0.025
323.15 K, x2 = 0.1588 | 780 ± 0.3 | 0.995 ± 0.021
323.15 K, x2 = 0.2391 | 778.4 ± 0.3 | 0.855 ± 0.019
323.15 K, x2 = 0.3508 | 776.5 ± 0.3 | 0.729 ± 0.016
323.15 K, x2 = 0.4441 | 775.2 ± 0.3 | 0.654 ± 0.015
323.15 K, x2 = 0.561 | 774 ± 0.3 | 0.583 ± 0.013
323.15 K, x2 = 0.6484 | 773.4 ± 0.3 | 0.543 ± 0.012
323.15 K, x2 = 0.741 | 772.9 ± 0.3 | 0.505 ± 0.012
323.15 K, x2 = 0.8528 | 772.7 ± 0.3 | 0.468 ± 0.011
323.15 K, x2 = 0.9406 | 772.8 ± 0.3 | 0.445 ± 0.01
